Assay results published in patent US10188639B2, “Methods of treating neurological, metabolic, and other disorders using enantiopure deuterium-enriched pioglitazone” (DeuteRx, LLC, priority 2014, dated 2019).
Like-named read-outs stand apart in the source and are kept apart here.

Key:
[1] = plasma
Description: The plasma samples were incubated at 37° C. in duplicate (anticoagulant: K3EDTA). […] Samples were placed at −80° C. until the study was complete. […] The vortexed samples were centrifuged and 50 μL of supernatant was dispensed in a 96-well plate.
The deuterium in both enantiomers, d-S and d-R, can be lost by D/H exchange to give both protonated enantiomers, h-S and h-R with rate constants kDRR, kDRS, kDSR, and kDSS. At the same time, the protonated enantiomers h-S and h-R can exchange with enantiomerization rate constants kRS and kSR. All four compounds can also degrade with potentially different degradation rate constants kdSd, kdRd, khSd, and khRd.
Human and mouse plasma data were analyzed independently. […] Data in each species was analyzed using a stepwise approach.
The step between calculated time points was minimized in order to minimize the local error (proportional to the square of the step size) and the global error (proportional to the step size).

db/db mice = test: db/db mouse model of type II diabetes, 10-day daily oral dosing; type: in vivo; settings: for decrease of IL-1β / decrease of IL-6 / decrease of TNF-α: d-R-pio 20 mg/kg; for adiponectin: d-S-pio 20 mg/kg; for non-essential fatty acids: 20 mg/kg daily oral gavage, 10 days, compared with h-rac-pio 30 mg/kg
Description: Body weights were measured throughout the study. Non-fasting blood glucose (10 μL by tail snip) was measured 4 hours prior to first dose, and animals were sorted and assigned to groups based on this measure. […] A terminal blood sample was collected for determination of serum levels of cholesterol, triglycerides, free fatty acids, adiponectin, serum amyloid A, and cytokines IL-1β, IL-6, TNF-α, and MCP-1, using standard analytical methods. Quantitative results were analyzed by statistical methods using, as appropriate, one- or two-way ANOVA or Kruskal-Wallis tests for differences followed by Sidak's, Dunnett's, or Dunn's post-test to determine differences vs. vehicle-treated control animals. All graphs were generated with GraphPad Prism version 6.0.2 (GraphPad Software, Inc., La Jolla, Calif.).

[2] = Body weight gain in male C57BL/6J mice on a standard diet; type: in vivo, mouse; settings: twice daily oral gavage for 11 days; overall daily dose h-rac-pio 30 mg/kg, d-S-pio 15 mg/kg, d-R-pio 15 mg/kg; vs. vehicle
Description: Male C57BL/6J mice (about 28 g body weight) were acclimated singly-housed for one week to a reverse light/dark cycle with free access to water and standard maintenance diet. Animals were then handled daily for one week followed by another 7 days of twice daily dosing with vehicle (0.5% methylcellulose in water) by oral gavage. […] Body weights were measured twice daily, prior to each dosing, to adjust individual dosing volumes to actual body weights.

[3] = biological target: human recombinant monoamine oxidase B (Homo sapiens (Human), UniProt P27338); test: Monoamine oxidase B (MAO-B) inhibition, luminescence assay; type: biochemical
human recombinant monoamine oxidase B, sequence (P27338 whole entry): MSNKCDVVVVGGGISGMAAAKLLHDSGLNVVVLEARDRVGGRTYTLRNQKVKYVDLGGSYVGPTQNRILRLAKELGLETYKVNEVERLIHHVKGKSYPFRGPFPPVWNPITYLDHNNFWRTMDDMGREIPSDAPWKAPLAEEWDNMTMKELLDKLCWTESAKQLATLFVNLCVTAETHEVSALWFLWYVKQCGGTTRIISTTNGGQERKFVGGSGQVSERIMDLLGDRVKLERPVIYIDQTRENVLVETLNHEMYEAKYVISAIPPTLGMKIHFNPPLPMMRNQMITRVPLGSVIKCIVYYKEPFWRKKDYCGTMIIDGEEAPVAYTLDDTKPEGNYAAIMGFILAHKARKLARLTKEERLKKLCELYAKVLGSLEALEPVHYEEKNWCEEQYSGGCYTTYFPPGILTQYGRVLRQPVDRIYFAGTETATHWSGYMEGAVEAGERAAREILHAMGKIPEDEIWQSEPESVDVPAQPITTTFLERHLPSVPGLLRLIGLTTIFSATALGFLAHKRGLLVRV
Description: The mixtures were incubated at 22° C. for 5 min. Substrate (D-luciferin derivative) was added, and then the mixture was incubated at 37° C. for 60 min. The reaction was stopped by addition of the detection reagent containing luciferase. Luminescence was read after standing for 60 min at room temperature.
Results were expressed as a percentage of the luminescence of the control (enzyme+substrate). IC50 values were obtained by fitting experimental data (mean % luminescence as function of concentration) to the Hill equation with variable slope using non-linear regression analysis.

[4] = Pharmacokinetics in male C57BL/6 mice after oral gavage for 5 days; settings: day 5, oral gavage daily; for t1/2 (h) d-S: elimination half-life of d-S-pio; for t1/2 (h) h-R: elimination half-life of h-R-pio; for t1/2 (h) h-R / t1/2 (h) h-S: h-rac-pio 30 mg/kg, d-S-pio and d-R-pio 15 mg/kg; for t1/2 (h) h-S: elimination half-life of h-S-pio
Description: (§1) Animals were then euthanized. Plasma was separated by centrifugation and stored at −80° C. until analyzed.
(§2) Concentrations were calculated by interpolation on standard curves generated from mouse plasma samples spiked with known concentrations of the pure analytes.

[5] = mouse, in vivo, po, 15 mg/kg
Description: as §1, §2

[6] = 10 days daily oral, h-rac-pio 30 mg/kg, vs. vehicle

SMILES | t1/2 of h-R-pio, ln(2)/kRS ([1]; human) | t1/2 of h-S-pio, ln(2)/kSR ([1]; human) | t1/2 of h-R-pio, ln(2)/kRS ([1]; mouse) | t1/2 of h-S-pio, ln(2)/kSR ([1]; mouse) | decrease of IL-1β (db/db mice; [6]) | decrease of IL-6 (db/db mice; [6]) | decrease of TNF-α (db/db mice; [6]) | adiponectin (db/db mice; [6]) | insulin (db/db mice; [6]) | percent body weight difference versus day 1 body weight [2] | difference in inhibition efficacy between d-R-pio and d-S-pio [3] | non-essential fatty acids (db/db mice) | t1/2 (h) d-S ([4]; 15 mg/kg) | t1/2 (h) h-R [4] | t1/2 (h) h-S [4] | AUC0-inf (ng · h/mL) d-R ([4]; plasma d-R-pio, 15 mg/kg) | Cmax (ng/mL) d-R ([4]; plasma d-R-pio, 15 mg/kg) | tmax (h) d-R [5]
[2H]C1(Cc2ccc(OCCc3ccc(CC)cn3)cc2)SC(=O)NC1=O (racemic) [d-rac-pio, rac-5-({p-[2-(5-Ethyl-2-pyridyl)ethoxy]phenyl}methyl)-(5-^2H)-1,3-thiazolidine-2,4-dione] | 1.6 h | 1.6 h | 0.9 h | 0.75 h |  |  |  |  |  |  |  |  |  |  |  |  |  | 
CCc1ccc(CCOc2ccc(CC3SC(=O)NC3=O)cc2)nc1 (racemic) [h-rac-pio, rac-5-({p-[2-(5-Ethyl-2-pyridyl)ethoxy]phenyl}methyl)-1,3-thiazolidine-2,4-dione, reference compound] |  |  |  |  | trending | trending | trending | significantly increased | significantly decreased | statistically significant increase |  |  |  |  |  |  |  | 
[2H][C@]1(Cc2ccc(OCCc3ccc(CC)cn3)cc2)SC(=O)NC1=O [d-R-pio, (R)-5-({p-[2-(5-Ethyl-2-pyridyl)ethoxy]phenyl}methyl)-(5-^2H)-1,3-thiazolidine-2,4-dione] |  |  |  |  | trending | trending | trending |  |  | did not increase percent body weight difference over vehicle | greater than 5 fold | a similar trend was observed | 0.8 h | 2.5 h | 2.5 h | 18.892 µg·h/mL | 6360 ng/mL | 1 h
[2H][C@@]1(Cc2ccc(OCCc3ccc(CC)cn3)cc2)SC(=O)NC1=O [d-S-pio, (S)-5-({p-[2-(5-Ethyl-2-pyridyl)ethoxy]phenyl}methyl)-(5-^2H)-1,3-thiazolidine-2,4-dione] |  |  |  |  |  |  |  | significantly increased |  | statistically significant increase |  | a similar trend was observed | 2.3 h | 3.2 h | 3.1 h |  |  | 
